Here are results for eight compounds from article PMC5473928 (Scientific Reports, 2017).

A word on the Kd: it is the free concentration of one partner at which half of the binding sites on the other are occupied at equilibrium, for simple one-to-one binding. The koff is the rate constant with which the complex falls apart. One may read the kinact as the maximal first-order rate at which the target is inactivated.

The subject of one test is HRasF28L. Further details: method as in PMID 1894650. Particulars: HRasF28L mutant; cited from earlier work.
A further test concerns KRas. Also noted: method as in PMID 8419371. Conditions: Mg^2+ reduced from a physiologically realistic value to 0.1 µM; cited from earlier work.
Another test has as its system HRas. Also noted: method as in PMID 2200519. Particulars: cited from earlier work; for dissociation rate constant (koff): value reported for HRas; for Kd: weakly bound competitor of mantdGDP.
The target in another test is T1, KRasWT (Homo sapiens, UniProt P01116).
T1 construct: His6 (cleaved yes); made in house
The test can be described thus: Stopped-flow competition binding of nucleotides to nucleotide-free KRas (mantdGDP or mantdGDPβMe fluorescence, global fit). Particulars: for koff: read-out: dissociation rate constant (koff). The procedure:
A method which leads to estimates of the kinetic parameters as well as the affinity involves stopped-flow measurements of association of fluorescent nucleotides with nucleotide-free Ras followed by competiton between fluorescent and non-fluorescent nucleotides to obtain the parameters for the non-labelled substances.
(§1) All stopped-flow experiments were performed in a SX-20 stopped-flow apparatus (Applied Photophysics) at 25 °C in a buffer consisting of 20 mM Hepes pH 7.5, 100 mM NaCl, 1 mM TCEP, 2 mM MgCl2 (excitation with 360 nm LED, emission detection with a 420 nm cut-off filter).

Test [1] has as its target T2, KRasG12C (Homo sapiens, UniProt P01116, C118S/C51S/C80L/G12C).
T2 construct: KRas1–169 G12C C51S C80L C118S were cloned into a modified pET19 expression vector; His6 (cleaved yes); made in house
The test can be described thus: ESI-MS monitoring of the covalent reaction with KRasG12C. The test is classed as biochemical. As for the experimental part: An independent confirmation of the rapid covalent reaction of SML-8-73-1 with KRasG12C was obtained by mixing the compound with the nucleotide-free protein followed by ESI-MS.
In order to test the predictions arising from the simulations in the case of SML-8-73-1, we have performed a number of semi-quantitative experiments using mass spectrometric analysis.
To allow comparison with published work, further experiments were performed at 37°. In the first experiment, the conditions described by Hunter et al.[21] were duplicated (15 µM KRasG12C, 150 µM SML-8-73-1, no added Mg^2+ ions).
In this case, there was very rapid generation of the covalent adduct, so that the first time of measurement (designated as time zero in the figure, but in practice after ca. 10 min), the reaction was practically complete (Fig. S3F).
The covalent reaction of SML-8-73-1 with KRasG12C was monitored by mass spectrometry. 200 µM SML-8-73-1 was added to the nucleotide-free protein (50 µM), 5 mM dithioerythritol (DTE) was added after ~20 s and the extent of modification monitored by ESI-MS.
For the measurements described in Fig. S3, KRasG12C and SML 8-73-1 were incubated in 20 mM HEPES pH 7.5 and 50 mM NaCl. The conditions are as mentioned in the figure. For each time point, the reaction was stopped by the addition of DTT (to 5 mM final concentration) and acetonitrile (to 25%).

Test [2] deals with T2, KRasG12C. Briefly: Stopped-flow competition binding and covalent reaction with nucleotide-free KRasG12C (mantdGDPβMe fluorescence, global fit). Particulars: 25 °C. As for the experimental part:
as §1

Test [3] has as its target T2, KRasG12C. Conditions: cited from earlier work.
The target in a further test is T3, KRas / SOS564–1049 (Homo sapiens, UniProt P01116).
T3 construct: His6 (cleaved yes); made in house
The test can be described thus: SOS catalyzed nucleotide exchange on KRas:nucleotide complexes, stopped-flow, excess SOS (Fig. 3A). Particulars: not reached in SOS range used; from numerical simulations. It counts as biochemical. As for the experimental part: as §1

[4] abbreviates: KRasWT, 25 °C, global fit of stopped-flow competition, read-out: association rate constant (kon).
The mark [5] stands for this setting: KRasWT, 25 °C, global fit of stopped-flow competition.
[6] abbreviates: read-out: association rate constant (kon).

Like-named read-outs stand apart in the source and are kept apart here.

As for `Nc1nc2c(ncn2C2OC(COP(=O)(O)OP(=O)(O)O)C(O)C2O)c(=O)[nH]1` (stereo not drawn) [GDP], the “factor of increase of the rate constant for GDP dissociation” value with HRasF28L is listed as “ca. 140”. Also, in the test on KRas, the “factor of acceleration of GDP release” value is recorded as “more than 200”. Moreover, in the test on HRas, the “dissociation rate constant (koff)” value is “ca. 10^−4 s^−1”. The kon is 8.2e+06 M⁻¹ s⁻¹ on KRasWT (setting [4]) and 8.7e+06 ± 40000 M⁻¹ s⁻¹ at KRasWT (read-out: association rate constant (binding scheme, Fig. 1A)). The Kd on KRasWT (read-out: Kd) is 0.02 nM.

`Nc1nc2c(ncn2[C@@H]2O[C@H](CO)[C@@H](O)[C@H]2O)c(=O)[nH]1` [guanosine]: the Kd on HRas was 153000 nM.

Take `Nc1nc2c(ncn2COCCOP(=O)(O)OP(=O)(O)OP(=O)(O)O)c(=O)[nH]1` [acyclovir triphosphate]: the kon at KRasWT (setting [4]) is 1.29e+07 M⁻¹ s⁻¹. Further, at KRasWT (setting [5]), the koff worked out at 0.1 s⁻¹. At KRasWT (read-out: Kd), the Kd was 8.5 nM.

For the compound `Nc1nc2c(ncn2[C@@H]2O[C@H](COP(=O)(O)OP(=O)(O)OCCNC(=O)CCl)[C@@H](O)[C@H]2O)c(=O)[nH]1` [SML-8-73-1], the “period over which covalent modification occurred” value on KRasG12C [1] (200 µM SML-8-73-1, 50 µM nucleotide-free KRasG12C, DTE quench) is recorded as “tens of seconds to minutes”. In addition, the “extent of covalent reaction after 52 h” value on KRasG12C [1] (25°, simulation conditions (20 µM inhibitor, 400 µM GTP, 40 µM GDP) but 10 µM KRas, Fig. S3A) is recorded as “almost no reaction”. Moreover, the “time to 50% reaction” value on KRasG12C [1] (37°, 15 µM KRasG12C, 150 µM SML-8-73-1, no added Mg^2+ (ca. 20 µM free), Fig. S3B) lay within 1 to 2 h. Besides, the “extent of covalent reaction after 51 h” value at KRasG12C [1] (37°, 1.5 mM each of GTP and GTP and 3 mM Mg^2+, Fig. S3E) was “a few percent”. Besides, the kon amounted to 4.1e+06 M⁻¹ s⁻¹ on KRasG12C [2] (setting [6]) and 7.4e+06 M⁻¹ s⁻¹ at KRasWT (setting [4]). Also, the figures for the koff at KRasG12C [2] (read-out: dissociation rate constant (koff)) and at KRasWT (setting [5]) were 0.9 s⁻¹ and 1 s⁻¹, respectively. Moreover, the kinact at KRasG12C [2] (read-out: rate constant for the covalent reaction (kinact)) was 0.1 s⁻¹. In addition, the “rate constant for the covalent reaction” value at KRasG12C [3] is 0.014 s⁻¹. For the same compound, the Kd on KRasG12C [3] (read-out: Kd for the reversible binding step) was 9 nM.

For the compound `CNc1ccccc1C(=O)O[C@H]1C[C@H](n2cnc3c(=O)[nH]c(N)nc32)O[C@@H]1COP(=O)(O)OP(=O)(O)O` [mantdGDP], in the test with HRas, the “dissociation rate constant (koff)” value is “ca. 10^−4 s^−1”. Further, at KRasWT (setting [5]), the “association rate constant (kon)” value came out at 3.2e+06 M⁻¹ s⁻¹.

For the compound `Nc1nc2c(ncn2[C@@H]2O[C@H](COP(=O)(O)O)[C@@H](O)[C@H]2O)c(=O)[nH]1` [GMP], the Kd on HRas was 29000 nM.

`CNc1ccccc1C(=O)O[C@H]1C[C@H](n2cnc3c(=O)[nH]c(N)nc32)O[C@@H]1COP(=O)(O)OP(=O)(O)OC` [mantdGDPβMe]: the “maximal (limiting) rate constant for nucleotide release by SOS” value on KRas / SOS564–1049 is over 5 s⁻¹. At KRasWT (setting [5]), the “association rate constant (kon)” value amounted to 4.9e+06 M⁻¹ s⁻¹ and the “dissociation rate constant (koff)” value came to 0.4 s⁻¹.

Take `COP(=O)(O)OP(=O)(O)OCC1OC(n2cnc3c(=O)[nH]c(N)nc32)C(O)C1O` (stereo not drawn) [GDPβMe, β-methyl ester of GDP]: at KRasWT, binding was put at a Kd of 130 nM and the koff worked out at 0.8 s⁻¹. The “inhibition of mantdGDP binding at equilibrium” value on KRasWT (3x excess of GDPβMe over mantdGDP) was “no significant inhibition”. For the same compound, at KRasWT (from similar kon and faster koff), the “affinity of KRas relative to GDP” value is on record as “ca. 4 orders of magnitude lower”. Moreover, at KRasWT (koff of GDPβMe vs koff of GDP), the “release rate relative to GDP” value was “approximately 10^4 times faster”. Also, the kon on KRasWT (setting [6]) is 5.8e+06 M⁻¹ s⁻¹.
